Experimental data taken from ChEMBL document CHEMBL4613311, “Synthesis of Novel G Factor or Chloroquine-Artemisinin Hybrids and Conjugates with Potent Antiplasmodial Activity” (ACS Med Chem Lett, 2020).

Assays:
[1] = tested on: Plasmodium falciparum; assay: Antiplasmodial activity against chloroquine resistant Plasmodium falciparum FcB1/Columbia infected in human erythrocytes preincubated for 24 hrs followed by [3H]-hypoxanthine addition and measured after 24 hrs by liquid scintillation analysis; type: functional, organism-based
[2] = Selectivity index, ratio of IC50 for human AB943 cells to IC50 for antiplasmodial activity against chloroquine resistant Plasmodium falciparum FcB1/Colombia infected in human erythrocytes; type: toxicity, cell-based; details: read-out: Ratio IC50
[3] = tested on: Plasmodium falciparum; assay: Antiplasmodial activity against chloroquine resistant Plasmodium falciparum FcB1/Columbia infected in human erythrocytes at 10 nM preincubated for 24 hrs followed by [3H]-hypoxanthine addition and measured after 24 hrs by liquid scintillation analysis relative to control; type: functional

What does the source list for `COC12OOC3(C=C1C(=O)C(C)(C)C(=O)C2(C)C)CCN(C(=O)CCC(=O)N(CCCCNC(=O)CC[C@H]1O[C@@H]2O[C@@]4(C)CC[C@H]5[C@H](C)CC[C@@H]([C@H]1C)[C@@]25OO4)CCCNC(=O)CC[C@H]1O[C@@H]2O[C@@]4(C)CC[C@H]5[C@H](C)CC[C@@H]([C@H]1C)[C@@]25OO4)CC3` (stereo partly drawn)?
IC50 [1]: 8.4 nM; selectivity ratio [2]: 2110

With `COC12OOC3(C=C1C(=O)C(C)(C)C(=O)C2(C)C)CCN(C(=O)CC[C@H]1O[C@@H]2O[C@@]4(C)CC[C@H]5[C@H](C)CC[C@@H]([C@H]1C)[C@@]25OO4)CC3` (stereo partly drawn) as the molecule, how does the IC50 [1] read?
The IC50 was 2.6 nM.

And the selectivity ratio [2]?
The selectivity ratio was 16400.

Which IC50 [1] does the source give for `COC12OOC3(C=C1C(=O)C(C)(C)C(=O)C2(C)C)CCNCC3` (stereo not drawn) here?
Its IC50 is over 250 nM.

With `C[C@H]1[C@@H](CCC(=O)NCCNc2ccnc3cc(Cl)ccc23)O[C@@H]2O[C@@]3(C)CC[C@H]4[C@H](C)CC[C@@H]1[C@@]24OO3` as the molecule, how does the inhibition at 0.01 µM [3] read?
The inhibition at 0.01 µM was 11%.

With `COC12OOC3(C=C1C(=O)C(C)(C)C(=O)C2(C)C)CCN(C(=O)CCC(=O)NCCCCN(CCCCNC(=O)CCC(=O)N1CCC2(C=C4C(=O)C(C)(C)C(=O)C(C)(C)C4(OC)OO2)CC1)C(=O)CCC(=O)NCCNc1ccnc2cc(Cl)ccc12)CC3` (stereo not drawn) as the molecule, how does the IC50 [1] read?
Its IC50 is over 167 nM.

Which inhibition at 0.01 µM [3] does the source give for `C[C@H]1[C@@H](CCC(=O)N2CCN(c3ccnc4cc(Cl)ccc34)CC2)O[C@@H]2O[C@@]3(C)CC[C@H]4[C@H](C)CC[C@@H]1[C@@]24OO3` here?
Its inhibition at 0.01 µM is 11%.

With `COC12OOC3(C=C1C(=O)C(C)(C)C(=O)C2(C)C)CCN(C(=O)CCC(=O)NCC[C@H]1O[C@@H]2O[C@@]4(C)CC[C@H]5[C@H](C)CC[C@@H]([C@H]1C)[C@@]25OO4)CC3` (stereo partly drawn) as the molecule, how does the IC50 [1] read?
Its IC50 is 124 nM.

And the selectivity ratio [2]?
The selectivity ratio was 144.

With `COC12OOC3(C=C1C(=O)C(C)(C)C(=O)C2(C)C)CCN(C(=O)CCC(=O)NCCCCN(CCCNC(=O)CCC(=O)N1CCC2(C=C4C(=O)C(C)(C)C(=O)C(C)(C)C4(OC)OO2)CC1)C(=O)CCC(=O)NCCNc1ccnc2cc(Cl)ccc12)CC3` (stereo not drawn) as the molecule, how does the IC50 [1] read?
The IC50 was over 167 nM.

Which IC50 [1] does the source give for `C[C@H]1[C@@H](CCC(=O)NCCCCN(CCCCNC(=O)CC[C@H]2O[C@@H]3O[C@@]4(C)CC[C@H]5[C@H](C)CC[C@@H]([C@H]2C)[C@@]35OO4)C(=O)CCC(=O)NCCNc2ccnc3cc(Cl)ccc23)O[C@@H]2O[C@@]3(C)CC[C@H]4[C@H](C)CC[C@@H]1[C@@]24OO3` here?
The IC50 was 52.3 nM.

And the selectivity ratio [2]?
The selectivity ratio was 328.

Which IC50 [1] does the source give for `COC12OOC3(C=C1C(=O)C(C)(C)C(=O)C2(C)C)CCN(C(=O)CCC(=O)N(CCCCNC(=O)CC[C@H]1O[C@@H]2O[C@@]4(C)CC[C@H]5[C@H](C)CC[C@@H]([C@H]1C)[C@@]25OO4)CCCCNC(=O)CC[C@H]1O[C@@H]2O[C@@]4(C)CC[C@H]5[C@H](C)CC[C@@H]([C@H]1C)[C@@]25OO4)CC3` (stereo partly drawn) here?
Its IC50 is 10.6 nM.

What about the selectivity ratio [2] of the same molecule?
The selectivity ratio was 983.

Which results are given for `C[C@@H]1CC[C@H]2[C@@H](C)C(=O)O[C@@H]3O[C@@]4(C)CC[C@@H]1[C@]32OO4` [ARTEMISININ]?
IC50 [1]: 55 nM; selectivity ratio [2]: > 4540

For `C[C@H]1[C@@H](CCC(=O)NCCCCN(CCCNC(=O)CC[C@H]2O[C@@H]3O[C@@]4(C)CC[C@H]5[C@H](C)CC[C@@H]([C@H]2C)[C@@]35OO4)C(=O)CCC(=O)NCCNc2ccnc3cc(Cl)ccc23)O[C@@H]2O[C@@]3(C)CC[C@H]4[C@H](C)CC[C@@H]1[C@@]24OO3`, which inhibition at 0.01 µM [3] is on record?
Its inhibition at 0.01 µM is 33%.
